Values of other authors, collected in patent US20210052557A1, “COMPOSITIONS FOR TREATING INFECTIVE ARTERIAL DISEASES AND RELATED CONDITIONS” (CENTRE FOR DIGESTIVE DISEASES, priority 2018, published 2021).

What was measured:
[1] = test system: Chlamydophila pneumoniae (Cpn); conditions: single antibiotic given to patients
[2] = test system: Chlamydophila pneumoniae (Cpn)

## CC[C@H]1OC(=O)[C@H](C)[C@@H](O[C@H]2C[C@@](C)(OC)[C@@H](O)[C@H](C)O2)[C@H](C)[C@@H](O[C@@H]2O[C@H](C)C[C@H](N(C)C)[C@H]2O)[C@](C)(O)C[C@@H](C)CN(C)[C@H](C)[C@@H](O)[C@]1(C)O [Azithromycin]
[1]
  clinical benefit as monotherapy: some benefit, but this was not sustained

## CN(C)c1cc(NC(=O)CNC(C)(C)C)c(O)c2c1C[C@H]1C[C@H]3[C@H](N(C)C)C(O)=C(C(N)=O)C(=O)[C@@]3(O)C(O)=C1C2=O [Tigecycline]
[2]
  activity against Chlamydophila pneumoniae (Cpn): good activity

## CC[C@H]1OC(=O)[C@H](C)C(=O)[C@H](C)[C@@H](O[C@@H]2O[C@H](C)C[C@H](N(C)C)[C@H]2O)[C@](C)(OC/C=C/c2cnc3ccccc3c2)C[C@@H](C)C(=O)[C@H](C)[C@H]2NC(=O)O[C@@]21C [cethromycin]
[2]
  activity against Chlamydophila pneumoniae (Cpn): most active of the macrolides

## CC[C@H]1OC(=O)[C@H](C)[C@@H](O[C@H]2C[C@@](C)(OC)[C@@H](O)[C@H](C)O2)[C@H](C)[C@@H](O[C@@H]2O[C@H](C)C[C@H](N(C)C)[C@H]2O)[C@](C)(O)C[C@@H](C)/C(=N\OCOCCOC)[C@H](C)[C@@H](O)[C@]1(C)O [roxithromycin]
[1]
  clinical benefit as monotherapy: Benefit
